# Experimental data published in patent publication US20260325654A1, “METHODS AND COMPOSITIONS FOR TARGETED PROTEIN DEGRADATION” (Ranok Therapeutics (Hangzhou) Co. Ltd., priority 2023, published 2026).
# Where a name gives a salt, the structure may show the parent alone.
# What was measured:
# [1] = test system: LU65A; assay: CellTiter-Glo Reagent cancer cell line proliferation assay, LU65A; type: cell-based, human; conditions: Homo sapiens, 24 h, KRAS(G12C) heterozygous
# Outline: (§1)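 Cells were seeded at 4,000 per well, grown 24 hr at 37° C./5% CO2, then exposed 24 hr to 3-fold dilutions from 20 μM to 1.02 nM (0.5% DMSO final). Viability was read with CellTiter-Glo luminescence, and IC50 values were calculated.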
# [2] = test system: MKN1; assay: CellTiter-Glo Reagent cancer cell line proliferation assay, MKN1; type: cell-based; conditions: Homo sapiens, MKN-1; MKN1, KRAS (wt), 24 hr
# From the text: (§2) The following cancer cell lines were employed: • AsPC-1 human pancreatic adenocarcinoma, homozygous KRAS(G12D), (ATCC, #CRL-1682); A-427 human lung carcinoma, heterozygous KRAS(G12D), (ATCC, #HTB-53); AGS human gastric adenocarcinoma, heterozygous KRAS(G12D), (ATCC, #CRL-1739); GP2D human colon adenocarcinoma, heterozygous KRAS(G12D), (Sigma Aldrich, 95090714); SW1990 human pancreatic adenocarcinoma, homozygous KRAS(G12D), (ATCC, #CRL2172); LU65A human lung giant cell carcinoma, heterozygous KRAS(G12C), (JCRB Cell Bank, #JCRB0054); NCIH727 human lung carcinoid, heterozygous KRAS(G12V), (ATCC, #CRL-5815); MKN1 human gastric adenosquamous carcinoma KRAS (wt), (JCRB Cell Bank, #JCRB0252). Cell lines were cultured according to ATCC, JCRB and Sigma Aldrich recommendations.
# (§3) Cells were plated in 96-well tissue culture plates at 4,000 cells/well and incubated at 37° C./5% CO2 for 24 hr in 100 μl of media. 3-fold serial dilutions of each test compound were prepared ranging from 20 μM to 1.02 nM. Cells were then treated with test compounds at various concentrations with a final concentration of 0.5% DMSO/well, and then incubated at 37° C./5% CO2 for 24 hr. 100 μl of CellTiter-Glo® Reagent (Promega Corporation, Madison, WI) was added to each well and processed according manufacturer's protocol. Results were analyzed and IC50-values were calculated in GraphPad 7 software.
# [3] = test system: AGS; assay: CellTiter-Glo Reagent cancer cell line proliferation assay, AGS; type: cell-based, human; conditions: Homo sapiens, 24 h, KRAS(G12D) heterozygous
# Outline: as §1
# [4] = test system: GP2D; assay: CellTiter-Glo Reagent cancer cell line proliferation assay, GP2D; type: cell-based; conditions: Homo sapiens, KRAS(G12D) heterozygous, 24 hr
# From the text: as §2, §3
# [5] = test system: NCIH727; assay: CellTiter-Glo Reagent cancer cell line proliferation assay, NCIH727; type: cell-based, human; conditions: Homo sapiens, NCI-H727, 24 h, NCIH727, KRAS(G12V) heterozygous
# Outline: as §1
# [6] = target: T1, KRAS(G12C) (Homo sapiens, UniProt P01116, G12C); assay: KRAS Western Blot Protein Degradation Assay, LU65A; type: cell-based; conditions: 24 hr; for DC50: read-out: WB data LU65A DC50; for Dmax: read-out: WB data LU65A DMax
# T1 construct: LU65A that expresses KRAS(G12C); host or cells: LU65A
# From the text: as §2
# (§4) Cell lines SW1990 and GP2D that express KRAS(G12D), LU65A that expresses KRAS(G12C), and NCIH727 that expresses KRAS(G12V) were seeded in 6- or 12-well tissue culture plates, and after 1 hr, test compounds were added at various concentrations and incubated at 37° C./5% CO2 for 24 hr. Cells were then washed with cold PBS, aspirated and cold RIPA buffer containing a protease/phosphatase inhibitor cocktail was added to lyse cells. After centrifugation, the total protein concentrations of cell lysates were determined using the BCA protein assay. Samples were normalized for equivalent protein concentrations, 5× SDS-PAGE loading buffer added and denatured at 100° C. for 10 min. 20 μl of each sample/well was loaded on a SDS-PAGE gel and electrophoresed for 20 min at 80 V, then 120 V for 1.5 hr. Gels were then electroblotted to nitrocellulose membranes using a wet-transfer method at 250 mA for 2.5 hr. Membranes were incubated with blocking buffer for 1 hr and washed 3 times with TBST for 5 min. Membranes were then incubated with anti-KRAS (Sigma-Aldrich, #SAB1404011) and anti-β-Actin monoclonal antibodies (Cell Signaling Technology, #3700) diluted in blocking buffer at 4° C. overnight per the manufacturer's recommendations. After washing 3 times, blots were incubated with appropriately labeled secondary antibodies for 1 hr at room temperature and washed again. Fluorescence imaging and quantitation was performed using a LI-COR Odyssey. Results was analyzed using GraphPad Prism 7 software. Compound concentrations that induced KRAS degradation (DC50 and DCmax) were calculated using GraphPad Prism 7 software.
# [7] = target: T2, KRAS(G12V) (Homo sapiens, UniProt P01116, G12V); assay: KRAS Western Blot Protein Degradation Assay, NCIH727; type: cell-based; conditions: for DC50: 24 hr, read-out: WB data NCIH727 DC50; for Dmax: NCI-H727, 24 hr, read-out: WB data NCIH727 DMax
# T2 construct: anti-KRAS Western blot degradation by PROTACs recruiting CRBN or VHL
# From the text: as §2, §4
# [8] = test system: SW1990; assay: CellTiter-Glo Reagent cancer cell line proliferation assay, SW1990; type: cell-based; conditions: Homo sapiens; SW1990, KRAS(G12D) homozygous, 24 hr
# From the text: as §2, §3
# [9] = target: KRAS(G12D) (Homo sapiens, UniProt P01116, G12D); assay: cell-based; type: cell-based; parameters: Cell lines SW1990 and GP2D that express KRAS(G12D); host or cells: SW1990
# Experimental: Cell lines were cultured according to ATCC, JCRB and Sigma Aldrich recommendations.
# as §4, with “Cells” for “Cell lines SW1990 and GP2D that express KRAS(G12D), LU65A that expresses KRAS(G12C), and NCIH727 that expresses KRAS(G12V) were seeded in 6- or 12-well tissue culture plates, and after 1 hr, test compounds were added at various concentrations and incubated at 37° C./5% CO2 for 24 hr. Cells”
# T2 sequence (P01116 1-188 isoform P01116-2 G12V): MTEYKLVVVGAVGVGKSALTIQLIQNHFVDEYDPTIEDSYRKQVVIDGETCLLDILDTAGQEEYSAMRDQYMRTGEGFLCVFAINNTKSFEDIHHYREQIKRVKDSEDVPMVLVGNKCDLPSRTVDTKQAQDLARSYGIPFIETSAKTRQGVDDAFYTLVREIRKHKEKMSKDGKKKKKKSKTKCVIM
# T1 sequence (P01116 1-185 isoform P01116-2 G12C limits assumed): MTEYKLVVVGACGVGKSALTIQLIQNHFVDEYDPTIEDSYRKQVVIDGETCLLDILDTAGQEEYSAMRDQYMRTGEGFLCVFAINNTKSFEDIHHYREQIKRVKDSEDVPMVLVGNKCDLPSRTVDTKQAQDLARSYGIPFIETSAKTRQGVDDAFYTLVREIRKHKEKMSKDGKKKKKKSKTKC
# KRAS(G12D), sequence (P01116 1-188 isoform P01116-2 G12D): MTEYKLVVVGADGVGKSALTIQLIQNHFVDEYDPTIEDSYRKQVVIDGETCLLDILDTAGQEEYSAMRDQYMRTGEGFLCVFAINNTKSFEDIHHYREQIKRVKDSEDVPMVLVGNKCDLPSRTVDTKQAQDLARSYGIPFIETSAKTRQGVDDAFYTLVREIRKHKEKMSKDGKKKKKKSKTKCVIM
structure (smiles),measurement,setting,value
O=CO.[2H]C([2H])([2H])Oc1nc(-c2cc(O)cc3ccc(F)c(C#C)c23)c(F)c2nc(OCC3(CN4CCN(CC5CCN(c6ccc7c(c6)CN(C6CCC(=O)NC6=O)C7=O)CC5)CC4)CC3)nc(N3CC4CCC(C3)N4C(=O)CC(C)C#N)c12 (stereo not shown) [Compound 115],IC50,[1],< 100 nM
same,IC50,[2],> 1000 nM
same,IC50,[3],< 100 nM
same,IC50,[4],< 100 nM
same,IC50,[5],< 100 nM
same,DC50,[6],< 100 nM
same,Dmax,[6],> 50%
same,DC50,[7],< 100 nM
same,Dmax,[7],> 50%
C#Cc1c(F)ccc2cc(O)cc(-c3ncc4c(N5CC6CCC(C5)N6C(=O)C(C)(C)C#N)nc(OCC5(CN6CCN(CC7CCN(c8ccc9c(c8)CN(C8CCC(=O)NC8=O)C9=O)CC7)CC6)CC5)nc4c3F)c12 (stereo not shown) [Compound 106],IC50,[1],> 1000 nM
same,IC50,[2],< 100 nM
same,IC50,[3],> 1000 nM
same,IC50,[4],100 to 1000 nM
same,IC50,[5],> 1000 nM
same,DC50,[6],> 1000 nM
same,Dmax,[6],10 to 50%
same,DC50,[7],> 1000 nM
same,Dmax,[7],10 to 50%
"C#Cc1c(F)ccc2cc(O)cc(-c3ncc4c(N5C[C@H]6CC[C@@H](C5)N6)nc(OCC5(CN(C)Cc6ccc(C7CN(c8ccc9c(c8)CN(C8CCC(=O)NC8=O)C9=O)C7)cc6)CC5)nc4c3F)c12 (stereo partly drawn) [Compound 92, 3-(5-(3-(4-((((1-(((4-((1R,5S)-3,8-diazabicyclo[3.2.1]octan-3-yl)-7-(8-ethynyl-7-fluoro-3-hydroxynaphthalen-1-yl)-8-fluoropyrido[4,3-d]pyrimidin-2-yl)oxy)methyl)cyclopropyl)methyl)(methyl)amino)methyl)phenyl)azetidin-1-yl)-1-oxoisoindolin-2-yl) piperidine-2,6-dione formate]",IC50,[3],< 100 nM
same,IC50,[4],< 100 nM
same,IC50,[8],< 100 nM
C#Cc1c(F)ccc2cc(O)cc(-c3ncc4c(N5CC6CCC(C5)N6C(=O)CC#N)nc(OCC5(CN6CCN(CC7CCN(c8ccc9c(c8)CN(C8CCC(=O)NC8=O)C9=O)CC7)CC6)CC5)nc4c3F)c12 (stereo not shown) [Compound 80],IC50,[1],100 to 1000 nM
same,IC50,[5],< 100 nM
same,DC50,[6],< 100 nM
same,Dmax,[6],> 50%
same,DC50,[7],100 to 1000 nM
same,Dmax,[7],> 50%
O=CO.[2H]C([2H])([2H])Oc1nc(-c2cc(O)cc3ccc(F)c(C#C)c23)c(F)c2nc(OCC3(CN4CCN(CC5CCN(c6ccc7c(c6)CN(C6CCC(=O)NC6=O)C7=O)CC5)CC4)CC3)nc(N3CC4CCC(C3)N4C(=O)CCC#N)c12 (stereo not shown) [Compound 114],IC50,[1],< 100 nM
same,IC50,[2],100 to 1000 nM
same,IC50,[3],< 100 nM
same,IC50,[4],< 100 nM
same,IC50,[5],< 100 nM
same,DC50,[6],< 100 nM
same,Dmax,[6],> 50%
same,DC50,[7],< 100 nM
same,Dmax,[7],> 50%
C#Cc1c(F)ccc2cc(O)cc(-c3ncc4c(N5CC6CCC(C5)N6C(=O)C(F)(F)F)nc(OCC5(CN6CCN(CC7CCN(c8ccc9c(c8)CN(C8CCC(=O)NC8=O)C9=O)CC7)CC6)CC5)nc4c3F)c12 (stereo not shown) [Compound 78],Dmax,"[9]; SW1990, read-out: WB data SW1990 DMax",10 to 50%
same,DC50,"[9]; read-out: WB data SW1990 DC50, SW1990, KRAS degradation, 24 hr",100 to 1000 nM
same,IC50,[8],< 100 nM
C#Cc1c(F)ccc2cc(O)cc(-c3ncc4c(N5CC6CCC(C5)N6)nc(OCC5(CN6CCC(C#Cc7ccc8c(c7)CN(C7CCC(=O)NC7=O)C8=O)CC6)CC5)nc4c3F)c12 (stereo not shown) [Compound 91],IC50,[3],< 100 nM
same,IC50,[4],< 100 nM
same,IC50,[8],100 to 1000 nM
"C#Cc1c(F)ccc2cc(O)cc(-c3ncc4c(N5CCN(C(=O)CC#N)[C@@H](CC#N)C5)nc(OCC5(CN6CCN(CC7CCN(c8ccc9c(c8)CN(C8CCC(=O)NC8=O)C9=O)CC7)CC6)CC5)nc4c3F)c12 (stereo partly drawn) [Compound 103, 3-((2S)-2-(cyanomethyl)-4-(2-((1-((4-((1-(2-(2,6-dioxopiperidin-3-yl)-1-oxoisoindolin-5-yl)piperidin-4-yl)methyl)piperazin-1-yl)methyl)cyclopropyl)methoxy)-7-(8-ethynyl-7-fluoro-3-hydroxynaphthalen-1-yl)-8-fluoropyrido[4,3-d]pyrimidin-4-yl)piperazin-1-yl)-3-oxopropanenitrile]",IC50,[1],> 1000 nM
same,IC50,[2],> 1000 nM
same,IC50,[3],> 1000 nM
same,IC50,[4],> 1000 nM
same,IC50,[5],> 1000 nM
same,DC50,[6],> 1000 nM
same,Dmax,[6],10 to 50%
same,DC50,[7],> 1000 nM
same,Dmax,[7],> 50%
C#Cc1c(F)ccc2cc(O)cc(-c3ncc4c(N5CC6CCC(C5)N6C(=O)C(C)C#N)nc(OCC5(CN6CCN(CC7CCN(c8ccc9c(c8)CN(C8CCC(=O)NC8=O)C9=O)CC7)CC6)CC5)nc4c3F)c12 (stereo not shown) [Compound 108],IC50,[1],< 100 nM
same,IC50,[2],100 to 1000 nM
same,IC50,[3],100 to 1000 nM
same,IC50,[4],100 to 1000 nM
same,IC50,[5],< 100 nM
same,DC50,[6],< 100 nM
same,Dmax,[6],> 50%
same,DC50,[7],< 100 nM
same,Dmax,[7],> 50%
C#Cc1c(F)ccc2cc(O)cc(-c3nc(OC)c4c(N5CC6CCC(C5)N6C(=O)CC#N)nc(OCC5(CN6CCN(CC7CCN(c8ccc9c(c8)CN(C8CCC(=O)NC8=O)C9=O)CC7)CC6)CC5)nc4c3F)c12 (stereo not shown) [Compound 102],IC50,[1],100 to 1000 nM
same,IC50,[2],100 to 1000 nM
same,IC50,[3],> 1000 nM
same,IC50,[4],100 to 1000 nM
same,IC50,[5],100 to 1000 nM
same,DC50,[6],> 1000 nM
same,Dmax,[6],10 to 50%
same,DC50,[7],< 100 nM
same,Dmax,[7],> 50%
C#Cc1c(F)ccc2cc(O)cc(-c3ncc4c(N5CC6CCC(C5)N6C(=O)[C@@H](C)C#N)nc(OCC5(CN6CCN(CC7CCN(c8ccc9c(c8)CN(C8CCC(=O)NC8=O)C9=O)CC7)CC6)CC5)nc4c3F)c12 (stereo partly shown) [Compound 109],IC50,[1],< 100 nM
same,IC50,[2],> 1000 nM
same,IC50,[3],100 to 1000 nM
same,IC50,[4],100 to 1000 nM
same,IC50,[5],100 to 1000 nM
same,DC50,[7],< 100 nM
same,Dmax,[7],> 50%
C#Cc1c(F)ccc2cc(O)cc(-c3ncc4c(N5CC6CCC(C5)N6C(=O)C5(C#N)CC5)nc(OCC5(CN6CCN(CC7CCN(c8ccc9c(c8)CN(C8CCC(=O)NC8=O)C9=O)CC7)CC6)CC5)nc4c3F)c12 (stereo not shown) [Compound 107],IC50,[1],100 to 1000 nM
same,IC50,[2],100 to 1000 nM
same,IC50,[3],> 1000 nM
same,IC50,[4],100 to 1000 nM
same,IC50,[5],> 1000 nM
same,DC50,[6],100 to 1000 nM
same,Dmax,[6],> 50%
same,DC50,[7],< 100 nM
same,Dmax,[7],> 50%
